Article PMC10877416 (Translational Oncology, 2024)
Ends that are not written are not given here. Peptide text beside a SMILES is read from it.

B1: PD-L1(111-127), biotin-(Gly)5 form (peptide)
chain: VYRCMISYGGADYKRIT
HELM: PEPTIDE1{[O=C1N[C@H]2[C@H](CS[C@H]2CCCCC(=O)[*:2])N1].G.G.G.G.G.V.Y.R.[Abu].[Nle].I.S.Y.G.G.A.D.Y.K.R.I.T.[am]}$$$$V2.0
SMILES: CCCC[C@H](NC(=O)[C@H](CC)NC(=O)[C@H](CCCNC(=N)N)NC(=O)[C@H](Cc1ccc(O)cc1)NC(=O)[C@@H](NC(=O)CNC(=O)CNC(=O)CNC(=O)CNC(=O)CNC(=O)CCCC[C@@H]1SC[C@@H]2NC(=O)N[C@@H]21)C(C)C)C(=O)N[C@H](C(=O)N[C@@H](CO)C(=O)N[C@@H](Cc1ccc(O)cc1)C(=O)NCC(=O)NCC(=O)N[C@@H](C)C(=O)N[C@@H](CC(=O)O)C(=O)N[C@@H](Cc1ccc(O)cc1)C(=O)N[C@@H](CCCCN)C(=O)N[C@@H](CCCNC(=N)N)C(=O)N[C@H](C(=O)N[C@H](C(N)=O)[C@@H](C)O)[C@@H](C)CC)[C@@H](C)CC
B2: PD-L1(113-126), biotin-(Gly)5 form (peptide)
chain: RCMISYGGADYKRI
HELM: PEPTIDE1{[O=C1N[C@H]2[C@H](CS[C@H]2CCCCC(=O)[*:2])N1].G.G.G.G.G.R.[Abu].[Nle].I.S.Y.G.G.A.D.Y.K.R.I.[am]}$$$$V2.0
SMILES: CCCC[C@H](NC(=O)[C@H](CC)NC(=O)[C@H](CCCNC(=N)N)NC(=O)CNC(=O)CNC(=O)CNC(=O)CNC(=O)CNC(=O)CCCC[C@@H]1SC[C@@H]2NC(=O)N[C@@H]21)C(=O)N[C@H](C(=O)N[C@@H](CO)C(=O)N[C@@H](Cc1ccc(O)cc1)C(=O)NCC(=O)NCC(=O)N[C@@H](C)C(=O)N[C@@H](CC(=O)O)C(=O)N[C@@H](Cc1ccc(O)cc1)C(=O)N[C@@H](CCCCN)C(=O)N[C@@H](CCCNC(=N)N)C(=O)N[C@H](C(N)=O)[C@@H](C)CC)[C@@H](C)CC
B3: PD-L1(110-128)(V111C-T127C), biotin-(Gly)5 form (peptide)
chain: GCYRCMISYGGADYKRICV
HELM: PEPTIDE1{[O=C1N[C@H]2[C@H](CS[C@H]2CCCCC(=O)[*:2])N1].G.G.G.G.G.G.C.Y.R.[Abu].[Nle].I.S.Y.G.G.A.D.Y.K.R.I.C.V.[am]}$PEPTIDE1,PEPTIDE1,8:R3-24:R3$$$V2.0
SMILES: CCCC[C@@H]1NC(=O)[C@H](CC)NC(=O)[C@H](CCCNC(=N)N)NC(=O)[C@H](Cc2ccc(O)cc2)NC(=O)[C@@H](NC(=O)CNC(=O)CNC(=O)CNC(=O)CNC(=O)CNC(=O)CNC(=O)CCCC[C@@H]2SC[C@@H]3NC(=O)N[C@@H]32)CSSC[C@@H](C(=O)N[C@H](C(N)=O)C(C)C)NC(=O)[C@H]([C@@H](C)CC)NC(=O)[C@H](CCCNC(=N)N)NC(=O)[C@H](CCCCN)NC(=O)[C@H](Cc2ccc(O)cc2)NC(=O)[C@H](CC(=O)O)NC(=O)[C@H](C)NC(=O)CNC(=O)CNC(=O)[C@H](Cc2ccc(O)cc2)NC(=O)[C@H](CO)NC(=O)[C@H]([C@@H](C)CC)NC1=O

system: not listed separately; test: Solubility in water; type: physicochemical; conditions: not given
From the text: To increase solubility, its sequence was elongated at the N- and C-terminals by adding hydrophilic amino acids from the protein sequence. […] These modifications were introduced to prevent the oxidation of methionine and cysteine.

| Molecule | Solubility in water |
| --- | --- |
| CCCC[C@H](NC(=O)[C@H](CCC(=O)O)NC(=O)[C@H](Cc1c[nH]c2ccccc12)NC(=O)[C@H](Cc1ccc(O)cc1)NC(=O)[C@@H](NC(=O)[C@@H](NC(=O)[C@H](CC(C)C)NC(=O)[C@H](C)NC(=O)[C@H](C)NC(=O)[C@H](CC(C)C)NC(=O)[C@H](CC(=O)O)NC(=O)[C@H](CC(C)C)NC(=O)[C@H](CCC(N)=O)NC(=O)[C@H](CCCCN)NC(=O)[C@H](CCC(=O)O)NC(C)=O)[C@@H](C)CC)C(C)C)C(=O)N[C@@H](CCC(=O)O)C(=O)N[C@@H](CC(=O)O)C(=O)N[C@@H](CCCCN)C(=O)N[C@@H](CC(N)=O)C(=O)N[C@H](C(=O)N[C@H](C(=O)N[C@@H](CCC(N)=O)C(=O)N[C@@H](Cc1ccccc1)C(=O)N[C@H](C(N)=O)C(C)C)[C@@H](C)CC)[C@@H](C)CC [Peptide L5] (HELM PEPTIDE1{[ac].E.K.Q.L.D.L.A.A.L.I.V.Y.W.E.[Nle].E.D.K.N.I.I.Q.F.V.[am]}$$$$V2.0) | no positive effect on the solubility |
| CCCC[C@H](NC(=O)[C@H](CCC(=O)O)NC(=O)[C@H](Cc1c[nH]c2ccccc12)NC(=O)[C@H](Cc1ccc(O)cc1)NC(=O)[C@@H](NC(=O)[C@@H](NC(=O)[C@H](CC(C)C)NC(=O)[C@H](C)NC(C)=O)[C@@H](C)CC)C(C)C)C(=O)N[C@@H](CCC(=O)O)C(=O)N[C@@H](CC(=O)O)C(=O)N[C@@H](CCCCN)C(=O)N[C@@H](CC(N)=O)C(=O)N[C@H](C(=O)N[C@H](C(=O)N[C@@H](CCC(N)=O)C(=O)N[C@@H](Cc1ccccc1)C(=O)N[C@H](C(N)=O)C(C)C)[C@@H](C)CC)[C@@H](C)CC [Peptide L2] (HELM PEPTIDE1{[ac].A.L.I.V.Y.W.E.[Nle].E.D.K.N.I.I.Q.F.V.[am]}$$$$V2.0) | poorly soluble in water |

molecular target: PD-1 protein; test: not given; conditions: Table S5, supplement reference list; NB = no binding; ref [6]; read-out: Affinity (KD); cited from earlier work

| Molecule | Kd [µM] |
| --- | --- |
| RRWQWR [WANG-005] | 5.1 |
| KRWWR [WANG-003] | 3.3 |
| FRWWR [WANG-004] | 1.6 |

same assay, conditions: Table S5, supplement reference list; ref [3]; read-out: Affinity (KD); cited from earlier work

| Molecule | Kd [µM] |
| --- | --- |
| GNWDANSQRAQLYNQ [Ar5Y_4 Y5A] | 20.2 |
| LDYDGRLSQ [Ar4_2] | 83.9 |
| FNWDYSLEELREKAKYK [Ar5Y_2] | 3.14 |
| GIDYEERWK [Ar4_1] | 28.3 |
| TEKDYRHGNIRMKLAYDL [Ar5Y_3] | 3.13 |
| GNWDYNSQAAQLYNQ [Ar5Y_4 R9A] | 21.2 |
| GNWDYNSQRAQLANQ [Ar5Y_4 Y13A] | 10.2 |
| LDYGDKREGQMAE [Ar5M_1] | 21.6 |
| GNWAYNSQRAQLYNQ [Ar5Y_4 D4A] | 18.9 |
| LDYVNRRKMYQ [Ar5M_2] | 3.32 |
| GNWDYNSQRAQLYNQ [Ar5Y_4] | 1.38 |
| FNWDYSWKSERLKEAYDL [Ar5Y_1] | 3.39 |
| GNADYNSQRAQLYNQ [Ar5Y_4 W3A] | 8.08 |
| WDYD [Ar3_1] | 22.3 |

same assay, conditions: Table S5, supplement reference list; ref [8]; read-out: Affinity (KD); cited from earlier work

| Molecule | Kd [µM] |
| --- | --- |
| CYRCMISYGGADYKRIC (disulfide (positions not given here)) | 17.5 |
| CVYRCMISYGGADYKRITC (disulfide (positions not given here)) [ΔDS-II [C110–C128]] | 11.6 |

same assay, conditions: Table S5, supplement reference list; ref [10]; read-out: Affinity (KD); cited from earlier work

| Molecule | Kd [µM] |
| --- | --- |
| WHRSYYTWNLNT [CLP002] | 0.366 |
| WHFSYNWRWLPP [CLP003] | 0.117 |
| HYPFRPHANQAS [CLP001] | 0.534 |
| DYHDPSLPTLRK [CLP004] | 0.544 |

same assay, conditions: Table S5, supplement reference list; ref [11]; read-out: Affinity (KD); cited from earlier work

| Molecule | Kd [µM] |
| --- | --- |
| RTCITYpGADYCRI [Peptide P1.4] | 474 |
| RTMIWYAAAWYKRI [Peptide P2.2] | 55.2 |
| RTMIWYGpAWYKRI [Peptide P2.3] | 129 |
| RTMIWYpPAWYKRI [Peptide P2.1] | 29.2 |
| RCMICYGGADYKRI [Peptide P1.1] | 3.66 |
| RCMISYpGADYKRI [Peptide P1.2] | 83 |

same assay, conditions: Table S5, supplement reference list; ref [12]; read-out: Affinity (KD); cited from earlier work

| Molecule | Kd [µM] |
| --- | --- |
| KSKAVNRVSQESEM [Pep6] | 66.4 |
| LERHDFGDGRARYEE [Pep10] | 39 |
| QYRCNGTSSKGSDQAIITLRV [Pep14] | 10.9 |
| LETWFGKEILVKT [Pep1] | 140 |
| TFKVEDRYGQGQQILD [Pep4] | 22.7 |
| TSEVDNGVGKPQKHS [Pep3] | 81.1 |
| LEYWSSGSTTMYGL [Pep9] | 36.4 |
| VFELRHSKRKDSRTVY [Pep2] | 127 |

same assay, conditions: Table S5, supplement reference list; ref [13]; read-out: Affinity (KD); cited from earlier work

| Molecule | Kd [µM] |
| --- | --- |
| [TMYLerRYpD] [PD-i3] | 102 |

same assay, conditions: Table S5, supplement reference list; ref [16]; read-out: Affinity (KD); cited from earlier work

| Molecule | Kd [µM] |
| --- | --- |
| [CKWYRPSEC] [Peptide C8] | 0.64 |

same assay, conditions: Table S5, supplement reference list; ref [17]; read-out: Affinity (KD); cited from earlier work

| Molecule | Kd [µM] |
| --- | --- |
| FSGTVTTAGLLF [P-F4] | 0.119 |

same assay, conditions: Table S5, supplement reference list; ref [18]; read-out: Affinity (KD); cited from earlier work

| Molecule | Kd [µM] |
| --- | --- |
| SHHHRLSRLKEIANSPTQFWRMVARNTLGNGAKQSLNIEHARL [nABPD1] | 0.0119 |
| SRLKEIANSPTQFWRMVARNTLGNGAKQSLNIEHARL [nABP284] | 11.8 |

same assay, conditions: Table S5, supplement reference list; ref [19]; read-out: Affinity (KD); cited from earlier work

| Molecule | Kd [µM] |
| --- | --- |
| RRWWRR [JD1] | 4.01 |
| RRQWFW [JD2] | 4.38 |

same assay, conditions: Table S5, supplement reference list; ref [21]; read-out: Affinity (KD); cited from earlier work

| Molecule | Kd [µM] |
| --- | --- |
| CRAMISYGGADYK-(N-Me-Arg)-IC [MN1.4] | 2 |

same assay, conditions: Table S5, supplement reference list; ref [22]; read-out: Affinity (KD); cited from earlier work

| Molecule | Kd [µM] |
| --- | --- |
| SGQQRTSADCWEDHGWGSGGSK [PBP] | 17.4 |

molecular target: PD-L1 protein; test: not given; conditions: Table S6, supplement reference list; ref [34]; read-out: Affinity (KD); cited from earlier work
From the text: Supplement mmc1.docx, table 8: Table S6. […] D - amino acids are marked with a lowercase letter. NB - no binding; ND - no data; JD - no name given by the authors. | column: Affinity (KD) [µM]

| Molecule | Kd [µM] |
| --- | --- |
| SGQYASYHCWCWRDPGRSGGSK [TPP-1] | 0.095 |

same assay, conditions: Table S6, supplement reference list; ref [36]; read-out: Affinity (KD); cited from earlier work

| Molecule | Kd [µM] |
| --- | --- |
| CLQKTPKQC [PD-L1Pep-1] | 0.373 |
| CVRARTR [PD-L1Pep-2] | 0.281 |

same assay, conditions: Table S6, supplement reference list; ref [38]; read-out: Affinity (KD); cited from earlier work

| Molecule | Kd [µM] |
| --- | --- |
| GQSEHHMRVYSF [OPBP-1] | 0.667 |

same assay, conditions: Table S6, supplement reference list; ref [40]; read-out: Affinity (KD); cited from earlier work

| Molecule | Kd [µM] |
| --- | --- |
| GTRLKPLIICVQWPGL [PD-L1ip3] | 33 |

same assay, conditions: Table S6, supplement reference list; ref [47]; read-out: Affinity (KD); cited from earlier work

| Molecule | Kd [µM] |
| --- | --- |
| GDWFKAYYDKVAEG [Peptide 4F-8] | 412 |
| DWFKAFYDKINETYNK [Peptide 4F-32] | 0.017 |
| DWIKANYDETAEYNKEAK [Peptide 4F-30] | 419 |
| SHFSASYDKYAEKF [Peptide 4F-16] | 49.4 |

molecular target: programmed cell death 1 (PD-1) (human, UniProt Q15116 25-170); test: SPR; Biacore T200; biotin-(Gly)5-peptides immobilised on an SA sensor chip (~800 RU, L1 ~500 RU); PD-1 injected at 0.31-10 µM (two-fold dilutions); PBS-P running buffer, 30 µl/min, 25°C; 1:1 binding model, at least three titrations; conditions: both partners purified
Sequence (Q15116 25-170): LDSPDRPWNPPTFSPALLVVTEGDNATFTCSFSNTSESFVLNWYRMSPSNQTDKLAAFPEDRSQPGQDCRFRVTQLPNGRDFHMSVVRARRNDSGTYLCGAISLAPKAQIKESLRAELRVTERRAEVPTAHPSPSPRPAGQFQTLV

| Molecule | koff [s⁻¹] | kon [M⁻¹ s⁻¹] |
| --- | --- | --- |
| B1 | 0.00179 | 10.9 |
| B2 | 0.000194 | 24.7 |
| B3 | 0.00071 | 33.1 |
